Laboratory results taken from US6841546B2, “Substituted tetracycline compounds as antifungal agents” (Paratek Pharmaceuticals, Inc., priority 2001, dated 2005).

Assay: Mammalian Cytotoxicity Assay (Resazurin)
Type: cell-based
Details: African green monkey (COS-1) and Chinese hamster (CHO)
Description: COS-1 and CHO cell suspensions are prepared, seeded into 96-well tissue culture treated black-walled microtiter plates (density determined by cell line), and incubated overnight at 37° C., in 5% CO2 and approximately 95% humidity. The following day serial dilutions of drug are prepared under sterile conditions and transferred to cell plates. Cell/Drug plates are incubated under the above conditions for 24 hours. Following the incubation period, media/drug is aspirated and 50 μl of Resazurin is added. Plates are then incubated under the above conditions for 2 hours and then in the dark at room temperature for an additional 30 minutes. Fluorescence measurements are taken (excitation 535 nm, emission 590 nm). The IC50 (concentration of drug causing 50% growth inhibition) is then calculated.

Structure (SMILES): CN(C)c1ccc(O)c2c1C[C@H]1C[C@H]3[C@H](N(C)C)C(O)=C(C(N)=O)C(=O)[C@@]3(O)C(O)=C1C2=O [minocycline]
- IC50 at 24 h: > 25 µg/mL

Structure (SMILES): C[C@H]1c2cccc(O)c2C(=O)C2=C(O)[C@]3(O)C(=O)C(C(N)=O)=C(O)[C@@H](N(C)C)[C@@H]3[C@@H](O)[C@@H]21 [doxycycline]
- IC50 at 24 h: > 25 µg/mL
